The numbers were not newly measured in US11793200B2, “Hypochlorous acid disinfectant and its production method” (SUPER AQUA INTERNATIONAL CO., LTD., priority 2019, dated 2023), which cites them from elsewhere.

This data set deals with coliform. To be noted: compared with hypochlorite ion (CLO-); both effective free chlorine; FIG. 2.

Turning to `OCl` [hypochlorous acid (HCLO), Hypochlorous acid], the “sterilization of hypochlorous acid (HCLO) relative to hypochlorite ion (CLO-)” value is on record as 80 times.
